Activity calls are given as the source filed them. The rule behind the calls is not given here.
What was measured:
HeLa [1] = test: Inhibition of cell migration in human HeLa cells incubated for 48 hrs by scratch wound healing assay; format: functional, cell-based
HeLa [2] = test: Inhibition of cell invasion in human HeLa cells at 2 to 8 uM incubated for 48 hrs by crystal violet staining based transwell invasion assay; format: functional; details: dose 2-8 µM
HeLa [3] = test: Inhibition of colony formation in human HeLa cells at 2 to 8 uM incubated for 2 weeks by crystal violet staining based microscopic analysis; format: functional, cell-based; details: dose 2-8 µM
HeLa [4] = test: Induction of cell cycle arrest in human HeLa cells at 2 to 8 uM; format: functional, cell-based; details: dose 2-8 µM
HeLa [5] = test: Induction of apoptosis in human HeLa cells assessed as upregulation of Bax expression incubated for 48 hrs by Western blot analysis; format: functional, cell-based
HeLa [6] = test: Induction of apoptosis in human HeLa cells assessed as upregulation of p53 expression incubated for 48 hrs by Western blot analysis; format: functional, cell-based
HeLa [7] = test: Induction of apoptosis in human HeLa cells assessed as upregulation of cleaved caspase-3 expression incubated for 48 hrs by Western blot analysis; format: functional, cell-based
HeLa [8] = test: Induction of apoptosis in human HeLa cells assessed as upregulation of cleaved PARP expression incubated for 48 hrs by Western blot analysis; format: functional, cell-based
Cell membrane [9] = test: Induction of mitochondrial membrane potential loss in human HeLa cells assessed as increase in green fluorescence at 2 to 8 uM incubated for 48 hrs by JC-1 staining based flow cytometry; details: dose 2-8 µM
Cell membrane [10] = test: Induction of mitochondrial membrane potential loss in human HeLa cells assessed as decrease in red fluorescence at 2 to 8 uM incubated for 48 hrs by JC-1 staining based flow cytometry; details: dose 2-8 µM
Cell membrane [11] = test: Disruption of mitochondrial membrane in human HeLa cells assessed as decrease in fluorescence intensity at 2 to 8 uM incubated for 48 hrs by mito-tracker green dye based fluorescence microscopic analysis; format: cell membranes; details: dose 2-8 µM
Cell membrane [12] = test: Disruption of lysosomal membrane in human HeLa cells assessed as decrease in fluorescence intensity at 2 to 8 uM incubated for 48 hrs by lyso-tracker red dye based fluorescence microscopic analysis; format: cell membranes; details: dose 2-8 µM
HeLa [13] = test: Induction of endoplasmic reticulum (ER) stress in human HeLa cells assessed as increase in red fluorescence intensity at 2 to 8 uM incubated for 48 hrs by ER-tracker red dye based fluorescence microscopic analysis; format: functional, cell-based; details: dose 2-8 µM
HeLa [14] = test: Induction of autophagy in human HeLa cells assessed as increase in number of autophagosomes incubated for 48 hrs by transmission electron microscopic analysis; format: functional, cell-based
HeLa [15] = test: Induction of autophagy in human HeLa cells assessed as increase in number of MDC-positive cells incubated for 48 hrs by MDC staining based fluorescence microscopic analysis; format: functional, cell-based
HeLa [16] = test: Induction of autophagy in human HeLa cells assessed as upregulation of Beclin-1 expression at 2 to 8 uM incubated for 48 hrs by Western blot analysis; format: functional, cell-based; details: dose 2-8 µM
HeLa [17] = test: Induction of autophagy in human HeLa cells assessed as upregulation of LC3 expression at 2 to 8 uM incubated for 48 hrs by Western blot analysis; format: functional, cell-based; details: dose 2-8 µM
HeLa [18] = test: Induction of autophagy in human HeLa cells assessed as downregulation of SQSTM1/p62 expression at 2 to 8 uM incubated for 48 hrs by Western blot analysis; format: functional, cell-based; details: dose 2-8 µM
HeLa [19] = test: Induction of autophagy in human HeLa cells assessed as upregulation of Beclin-1 expression incubated for 48 hrs by immunofluorescence assay; format: functional, cell-based
HeLa [20] = test: Induction of autophagy in human HeLa cells assessed as upregulation of LC3 expression incubated for 48 hrs by immunofluorescence assay; format: functional, cell-based
HeLa [21] = test: Induction of autophagy in human HeLa cells assessed as downregulation of PI3K expression at 2 to 8 uM incubated for 48 hrs by Western blot analysis; format: functional, cell-based; details: dose 2-8 µM
HeLa [22] = test: Induction of autophagy in human HeLa cells assessed as downregulation of PI3K phosphorylation at 2 to 8 uM incubated for 48 hrs by Western blot analysis; format: functional, cell-based; details: dose 2-8 µM
HeLa [23] = test: Induction of autophagy in human HeLa cells assessed as downregulation of AKT expression at 2 to 8 uM incubated for 48 hrs by Western blot analysis; format: functional, cell-based; details: dose 2-8 µM
HeLa [24] = test: Induction of autophagy in human HeLa cells assessed as downregulation of AKT phosphorylation at 2 to 8 uM incubated for 48 hrs by Western blot analysis; format: functional, cell-based; details: dose 2-8 µM
HeLa [25] = test: Induction of autophagy in human HeLa cells assessed as downregulation of mTOR expression at 2 to 8 uM incubated for 48 hrs by Western blot analysis; format: functional, cell-based; details: dose 2-8 µM
HeLa [26] = test: Induction of autophagy in human HeLa cells assessed as downregulation of mTOR phosphorylation at 2 to 8 uM incubated for 48 hrs by Western blot analysis; format: functional, cell-based; details: dose 2-8 µM
[27] = biological target: Small ribosomal subunit protein eS6 (Homo sapiens) (UniProt P62753); test: Inhibition of RPS6 in human HeLa cells assessed as downregulation of RPS6 expression at 2 to 8 uM incubated for 48 hrs by Western blot analysis; format: cell-based; details: dose 2-8 µM
[28] = biological target: Small ribosomal subunit protein eS6 (Homo sapiens) (UniProt P62753); test: Inhibition of RPS6 in human HeLa cells assessed as downregulation of RPS6 phosphorylation at 2 to 8 uM incubated for 48 hrs by Western blot analysis; format: cell-based; details: dose 2-8 µM
[29] = biological target: Small ribosomal subunit protein eS6 (Homo sapiens) (UniProt P62753); test: Binding affinity to RPS6 in human HeLa cells assessed as increase in protein abundance in presence of pronase by DARTS assay; format: cell-based
[30] = biological target: Small ribosomal subunit protein eS6 (Homo sapiens) (UniProt P62753); test: Binding affinity to RPS6 in human HeLa cells assessed as stabilization of protein at 100 uM at 70 degreeC by cellular thermal shift assay; format: cell-based
HeLa [31] = test: Induction of autophagy in human HeLa cells with siRNA-mediated RPS6 knockdown assessed as upregulation of Beclin-1 expression at 4 uM incubated for 48 hrs by Western blot analysis; format: functional, cell-based
HeLa [32] = test: Induction of autophagy in human HeLa cells with siRNA-mediated RPS6 knockdown assessed as upregulation of LC3 expression at 4 uM incubated for 48 hrs by Western blot analysis; format: functional, cell-based
HeLa [33] = test: Induction of autophagy in human HeLa cells with siRNA-mediated RPS6 knockdown assessed as downregulation of SQSTM1/p62 expression at 4 uM incubated for 48 hrs by Western blot analysis; format: functional, cell-based
HeLa [34] = test: Antitumor activity against human HeLa cells xenografted in BALB/c mouse assessed as reduction in tumor weight at 15 to 60 mg/kg,ip once daily for 14 days; format: functional, organism-based; details: dose 15-60 mg/kg, time 14.0 day
HeLa [35] = test: Antitumor activity against human HeLa cells xenografted in BALB/c mouse assessed as reduction in tumor volume at 15 to 60 mg/kg,ip once daily for 14 days; format: functional, organism-based; details: dose 15-60 mg/kg, time 14.0 day
HeLa [36] = test: Antitumor activity against human HeLa cells xenografted in BALB/c mouse assessed as necrotic cells in tumor at 15 to 60 mg/kg,ip once daily for 14 days; format: functional, organism-based; details: dose 15-60 mg/kg, time 14.0 day

CCOC(=O)C[C@H]1CSC[C@]1(C(=O)OCC)n1cnc2c(Cl)nc(Cl)nc21 (racemic)
inhibition (HeLa [1]): Dose-Dependent Effect | inhibition (HeLa [2]): Active | inhibition (HeLa [3]): Active | Activity (HeLa [4]): inactive | Activity (HeLa [5]): Dose-Dependent Effect | Activity (HeLa [6]): Dose-Dependent Effect | Activity (HeLa [7]): Dose-Dependent Effect | Activity (HeLa [8]): Dose-Dependent Effect | Activity (Cell membrane [9]): Active | Activity (Cell membrane [10]): Active | Activity (Cell membrane [11]): Active | Activity (Cell membrane [12]): Active | Activity (HeLa [13]): Active | Activity (HeLa [14]): Dose-Dependent Effect | Activity (HeLa [15]): Dose-Dependent Effect | Activity (HeLa [16]): Active | Activity (HeLa [17]): Active | Activity (HeLa [18]): Active | Activity (HeLa [19]): Active | Activity (HeLa [20]): Active | Activity (HeLa [21]): Active | Activity (HeLa [22]): Active | Activity (HeLa [23]): Active | Activity (HeLa [24]): Active | Activity (HeLa [25]): Active | Activity (HeLa [26]): Active | inhibition [27]: Active | inhibition [28]: Active | Activity [29]: Active | Activity [30]: Active | Activity (HeLa [31]): Active | Activity (HeLa [32]): Active | Activity (HeLa [33]): Active | Activity (HeLa [34]): Active | Activity (HeLa [35]): Active | Activity (HeLa [36]): Active
